{
  "source": "patent US11813306B2",
  "about": "“Cyclic tetramer compounds as proprotein convertase subtilisin/kexin type 9 (PCSK9) inhibitors for the treatment of metabolic disorders” (NOVARTIS AG, priority 2018, dated 2023)",
  "key": {"[1]": {"conditions": "DCM"}, "human PCSK9": {"molecular_target": "human PCSK9 (Homo sapiens, UniProt Q8NBP7)", "sequence (Q8NBP7 153-692)": "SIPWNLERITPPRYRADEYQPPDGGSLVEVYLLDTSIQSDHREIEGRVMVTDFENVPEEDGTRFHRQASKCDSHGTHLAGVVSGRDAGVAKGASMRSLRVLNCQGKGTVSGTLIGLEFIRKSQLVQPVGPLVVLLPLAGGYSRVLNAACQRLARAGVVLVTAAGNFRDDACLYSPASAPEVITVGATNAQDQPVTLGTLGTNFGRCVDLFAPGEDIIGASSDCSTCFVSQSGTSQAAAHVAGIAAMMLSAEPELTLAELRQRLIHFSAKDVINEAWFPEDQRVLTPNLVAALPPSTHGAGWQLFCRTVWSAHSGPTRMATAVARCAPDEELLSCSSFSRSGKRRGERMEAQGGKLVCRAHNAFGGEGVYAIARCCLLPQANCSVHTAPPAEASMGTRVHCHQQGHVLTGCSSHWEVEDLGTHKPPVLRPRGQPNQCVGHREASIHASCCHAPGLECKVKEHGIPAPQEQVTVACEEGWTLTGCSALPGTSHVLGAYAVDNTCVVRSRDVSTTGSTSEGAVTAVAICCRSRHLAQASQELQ", "sequence (Q8NBP7 31-152 partner limits assumed)": "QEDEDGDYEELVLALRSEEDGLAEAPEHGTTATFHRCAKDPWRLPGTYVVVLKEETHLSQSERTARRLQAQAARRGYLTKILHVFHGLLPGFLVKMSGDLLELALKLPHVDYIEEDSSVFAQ", "test": "PCSK9 ligand binding assay (TR-FRET): interference with binding of human PCSK9 to human LDLR", "conditions": "for IC50: Human PCSK9 Alexa Fluor 647 / Human LDLR extracellular domain-Europium Kryptate; for Max % inhibition: efficacy (Amax), 100% = 1 uM unlabeled human PCSK9, 0% = DMSO", "in_short": "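Read-out was TR-FRET ratio (665 nm over 615 nm, 330 nm excitation) between Alexa Fluor 647-human PCSK9 (16 nM added) and Europium Kryptate-human LDLR ectodomain (4 nM added). Compound and PCSK9 were mixed 30 min before LDLR, then incubated 2 h. Inhibition was normalised to DMSO and unlabelled-PCSK9 controls, giving IC50 and Amax.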"}},
  "note": "Read-outs that look alike come from different tables or passages of the source.",
  "data": [
    {"smiles": "C[C@H]1C(=O)N[C@@H](CO)C(=O)N[C@@]2(Cc3ccc(Cl)cc3)CCCN(C2)C(=O)[C@H](Cc2ccccc2)OC(=O)N1Cc1ccc(Cl)cc1Oc1ccc(-c2cnc(CN(C)C)n2C)cc1.Cl", "note": "[Compound 78, (3S,7S,10S,13R)-3-benzyl-6-(4-chloro-2-(4-(2-((dimethylamino)methyl)-1-methyl-1H-imidazol-5-yl)phenoxy)benzyl)-13-(4-chlorobenzyl)-10-(hydroxymethyl)-7-methyl-4-oxa-1,6,9,12-tetraazabicyclo[11.3.1]heptadecane-2,5,8,11-tetraone hydrochloride]", "values": [
      {"measurement": "ring closure, yield of all isomers", "setting": "[1]; from C[C@@H](C(=O)N[C@@H](CO)C(=O)N[C@@]1(Cc2ccc(Cl)cc2)CCCNC1)N(Cc1ccc(Cl)cc1Oc1ccc(-c2cnc(CN(C)C)n2C)cc1)C(=O)O[C@@H](Cc1ccccc1)C(=O)O, amide bond, HATU/HOAt, 2,6-lutidine, 1.0 mM, 25.0 °C, 2.25 h, 2 steps", "value": 38, "unit": "%"},
      {"measurement": "IC50", "setting": "human PCSK9", "value": 0.859, "unit": "nM"},
      {"measurement": "Max % inhibition", "setting": "human PCSK9", "value": 99.2, "unit": "%"}
    ]},
    {"smiles": "COC[C@@H]1NC(=O)[C@H](C)N(Cc2ccc(Cl)cc2Oc2ccc(-c3cnc(CN(C)C)n3C)cc2)CC[C@@H](Cc2ccccc2)C(=O)N2CCC[C@@](Cc3ccc(Cl)cc3)(C2)NC1=O.O=C(O)C(F)(F)F", "note": "[Compound 120, (3R,7S,10S,13R)-3-benzyl-6-(4-chloro-2-(4-(2-((dimethylamino)methyl)-1-methyl-1H-imidazol-5-yl)phenoxy)benzyl)-13-(4-chlorobenzyl)-10-(methoxymethyl)-7-methyl-1,6,9,12-tetraazabicyclo[11.3.1]heptadecane-2,8,11-trione trifluoroacetate]", "values": [
      {"measurement": "ring closure, yield of all isomers", "setting": "[1]; from COC[C@H](NC(=O)[C@H](C)N)C(=O)N[C@@]1(Cc2ccc(Cl)cc2)CCCN(C(=O)[C@@H](CC=O)Cc2ccccc2)C1, amine bond, NaBH(OAc)3/AcOH, 10.0 mM, 25.0 °C, 2.5 h, 4 steps", "value": 0.6, "unit": "%"},
      {"measurement": "IC50", "setting": "human PCSK9", "value": 61.2, "unit": "nM"},
      {"measurement": "Max % inhibition", "setting": "human PCSK9", "value": 102.4, "unit": "%"}
    ]},
    {"smiles": "C[C@H]1C(=O)N[C@@H](CO)C(=O)N(C)[C@H](Cc2ccc(Cl)cc2)CN(C)C(=O)[C@H]([C@H]2CCc3ccccc32)CC(=O)N1Cc1ccc(Cl)cc1Oc1ccc(-c2cnc(CN3CCCC3)n2C)cc1.Cl", "note": "[Compound 86, (2S,5S,8R,12S)-1-(4-chloro-2-(4-(1-methyl-2-(pyrrolidin-1-ylmethyl)-1H-imidazol-5-yl)phenoxy)-benzyl)-8-(4-chlorobenzyl)-12-((R)-2,3-dihydro-1H-inden-1-yl)-5-(hydroxymethyl)-2,7,10-trimethyl-1,4,7,10-tetraazacyclotetradecane-3,6,11,14-tetraone hydrochloride]", "values": [
      {"measurement": "ring closure, yield of all isomers", "setting": "[1]; from C[C@H](NCc1ccc(Cl)cc1Oc1ccc(-c2cnc(CN3CCCC3)n2C)cc1)C(=O)N[C@@H](COC(C)(C)C)C(=O)N(C)[C@H](Cc1ccc(Cl)cc1)CN(C)C(=O)[C@@H](CC(=O)O)[C@H]1CCc2ccccc21, amide bond, HATU, 1.0 mM, 40.0 °C, 29.0 h, 2 steps", "value": 45, "unit": "%"},
      {"measurement": "IC50", "setting": "human PCSK9", "value": 0.941, "unit": "nM"},
      {"measurement": "Max % inhibition", "setting": "human PCSK9", "value": 99.4, "unit": "%"}
    ]},
    {"smiles": "COC[C@@H]1NC(=O)[C@H](C)N(Cc2ccc(Cl)cc2Oc2ccc(-c3cnc(CN4CCCC4)n3C)cc2)C(=O)C[C@@H]([C@H]2CCc3ccccc32)C(=O)N2CCC[C@@](Cc3ccc(Cl)cc3)(C2)NC1=O.O=C(O)C(F)(F)F", "note": "[Compound 96, (3S,7S,10S,13R)-6-(4-chloro-2-(4-(1-methyl-2-(pyrrolidin-1-ylmethyl)-1H-imidazol-5-yl)phenoxy)benzyl)-13-(4-chlorobenzyl)-3-((R)-2,3-dihydro-1H-inden-1-yl)-10-(methoxymethyl)-7-methyl-1,6,9,12-tetraazabicyclo[11.3.1]heptadecane-2,5,8,11-tetraone trifluoroacetate]", "values": [
      {"measurement": "ring closure, yield of all isomers", "setting": "[1]; from COC[C@H](NC(=O)[C@H](C)NCc1ccc(Cl)cc1Oc1ccc(-c2cnc(CN3CCCC3)n2C)cc1)C(=O)N[C@@]1(Cc2ccc(Cl)cc2)CCCN(C(=O)[C@@H](CC(=O)O)[C@H]2CCc3ccccc32)C1, amide bond, HATU/HOAt/2,6-lutidine, 1.04 mM, 40.0 °C, 17.0 h", "value": 46, "unit": "%"},
      {"measurement": "IC50", "setting": "human PCSK9", "value": 2.21, "unit": "nM"},
      {"measurement": "Max % inhibition", "setting": "human PCSK9", "value": 96.3, "unit": "%"}
    ]},
    {"smiles": "COC[C@@H]1NC(=O)[C@H](C)N(Cc2c(F)cc(Cl)cc2Oc2ccc(-c3cnc(CN(C)C)n3C)cc2)C(=O)C[C@@H](Cc2cccc(C)n2)C(=O)N2CCC[C@@](Cc3ccc(Cl)cc3)(C2)N(C)C1=O", "note": "[Compound 13, (3R,7S,10S,13R)-6-(4-chloro-2-(4-(2-((dimethylamino)methyl)-1-methyl-1H-imidazol-5-yl)phenoxy)-6-fluorobenzyl)-13-(4-chlorobenzyl)-10-(methoxymethyl)-7,12-dimethyl-3-((6-methylpyridin-2-yl)methyl)-1,6,9,12-tetraazabicyclo[11.3.1]heptadecane-2,5,8,11-tetraone]", "values": [
      {"measurement": "ring closure, yield of all isomers", "setting": "[1]; from COC[C@H](NC(=O)[C@H](C)NCc1c(F)cc(Cl)cc1Oc1ccc(-c2cnc(CN(C)C)n2C)cc1)C(=O)N(C)[C@@]1(Cc2ccc(Cl)cc2)CCCN(C(=O)[C@@H](CC(=O)O)Cc2cccc(C)n2)C1, amide bond, HATU/HOAt/2,6-lutidine, 1.59 mM, 48.0 °C, 16.0 h", "value": 33, "unit": "%"},
      {"measurement": "IC50", "setting": "human PCSK9", "value": 0.549, "unit": "nM"},
      {"measurement": "Max % inhibition", "setting": "human PCSK9", "value": 112.1, "unit": "%"}
    ]}
  ]
}
